Test results published in patent publication US12084451B2, “Compositions and methods for reducing tactile dysfunction, anxiety, and social impairment” (President and Fellows of Harvard College, priority 2018, dated 2024).

Key:
Type in all cases: cell-based
hGABAA α1β3γ2 [1] = biological target: T1, hGABAA α1β3γ2 (Homo sapiens, UniProt P14867+P18507+P28472); assay: hGABAA IonFlux HT PAM Assay, α1β3γ2; settings: for Mean Maximal Effect (% of Control): normalized to baseline peak current induced by EC20 GABA (1 μM) for 2 seconds
Text: (§1) Ligand-gated ion channels targeted were hGABAA α1β3γ2 and hGABAA α2β3γ2.
(§2) Electrophysiological assays conducted to profile nine (9) compounds for activities on the on channel targets listed above for Positive Allosteric Modulator (PAM) activities using the IonFlux HT electrophysiological platform.
The parameters measured are described in the Data Analysis section.
(§3) All wells included a final DMSO concentration of 0.33% including all control wells.
(§4) All recordings were obtained from a holding potential of −60 mV. The compound addition sequence that was used for all additions was the same for all assays. […] The process was repeated with the next ascending concentration of test compound (FIG. 1).
(§5) All data were first exported to an Excel compatible data file and then analyzed using Graph Pad Prism software.

hGABAA α2β3γ2 = hGABAA α2β3γ2 (Homo sapiens, UniProt P18507+P28472+P47869); assay: hGABAA IonFlux HT PAM Assay, α2β3γ2; settings: for Mean Maximal Effect (% of Control): normalized to baseline peak current induced by EC20 GABA (0.8 μM) for 2 seconds
Text: as §1, §2
The parameters measured are described in the Data Analysis section. […] Open circles represent data that has been excluded from the curve fitting. Where no curve fit was possible, n/c (not calculable) is listed.
as §3, §4, §5

hGABAA α1β3γ2 [2] = biological target: T1, hGABAA α1β3γ2; assay: hGABAA α1β3γ2 IonFlux HT Agonist Assay; design: activation of hGABAA α1β3γ2 ion channel currents / activation: dose or concentration left out as unconfirmed
Experimental: Ligand-gated ion channel targets were hGABAA α2β3γ2 and hGABAA α1β3γ2. Electrophysiological assays conducted to profile two compounds for agonist activities on hGABAA α2β3γ2 and seven compounds for agonist activities on hGABAA α1β3γ2 using the IonFlux HT electrophysiological platform.
The parameters measured are described in the Data Analysis section. […] Note: The test compounds was applied over two (2) ‘experimental patterns’ in increasing concentrations.
The supplied compound was prepared in DMSO to concentrations that were 300× the final assay concentrations. Aliquots were taken out and diluted 300× into external buffer to give the final assay concentration. At wells included a final DMSO concentration of 0.33% including all control wets.
All recordings were obtained from a holding potential of −60 mV. The compound addition sequence that was used for all additions was the same for all assays. […] Each test concentration of compound was applied for 2 seconds followed by 60 seconds wash. The process was repeated with the next ascending concentration of test compound. The test compounds were applied over two (2) ‘experimental patterns’ in increasing concentrations (FIG. 11).
AM data were first exported to an Excel compatible data file and then analyzed using Graph Pad Prism software.

[3] = read-out: Normalized Percentage Activation Mean

Chain of hGABAA α2β3γ2 (P47869 29-451): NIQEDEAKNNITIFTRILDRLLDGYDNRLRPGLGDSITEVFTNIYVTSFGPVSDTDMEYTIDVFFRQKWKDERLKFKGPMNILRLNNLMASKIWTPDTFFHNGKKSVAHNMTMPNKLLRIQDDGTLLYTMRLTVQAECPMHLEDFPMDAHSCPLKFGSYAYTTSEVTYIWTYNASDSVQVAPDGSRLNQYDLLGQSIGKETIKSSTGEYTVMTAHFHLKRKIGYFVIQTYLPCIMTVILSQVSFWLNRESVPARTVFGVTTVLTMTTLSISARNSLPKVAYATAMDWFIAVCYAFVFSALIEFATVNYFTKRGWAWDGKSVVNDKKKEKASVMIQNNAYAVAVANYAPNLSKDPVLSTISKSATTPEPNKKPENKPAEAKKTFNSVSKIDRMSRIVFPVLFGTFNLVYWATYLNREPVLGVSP
Chain of hGABAA α2β3γ2 (P28472 26-473): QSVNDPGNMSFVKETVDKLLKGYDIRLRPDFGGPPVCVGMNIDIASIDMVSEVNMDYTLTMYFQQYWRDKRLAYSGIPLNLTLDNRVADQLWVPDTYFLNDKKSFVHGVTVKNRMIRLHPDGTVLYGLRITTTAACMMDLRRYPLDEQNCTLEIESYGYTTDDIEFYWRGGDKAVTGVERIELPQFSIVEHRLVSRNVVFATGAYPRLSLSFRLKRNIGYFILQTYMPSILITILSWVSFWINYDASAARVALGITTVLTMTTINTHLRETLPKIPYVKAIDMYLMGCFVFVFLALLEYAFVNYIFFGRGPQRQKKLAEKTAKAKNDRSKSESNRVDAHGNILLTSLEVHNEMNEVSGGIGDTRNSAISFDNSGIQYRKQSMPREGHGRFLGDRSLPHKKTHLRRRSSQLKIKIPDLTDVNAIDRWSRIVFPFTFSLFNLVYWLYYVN
Chain of hGABAA α2β3γ2 (P18507 40-475): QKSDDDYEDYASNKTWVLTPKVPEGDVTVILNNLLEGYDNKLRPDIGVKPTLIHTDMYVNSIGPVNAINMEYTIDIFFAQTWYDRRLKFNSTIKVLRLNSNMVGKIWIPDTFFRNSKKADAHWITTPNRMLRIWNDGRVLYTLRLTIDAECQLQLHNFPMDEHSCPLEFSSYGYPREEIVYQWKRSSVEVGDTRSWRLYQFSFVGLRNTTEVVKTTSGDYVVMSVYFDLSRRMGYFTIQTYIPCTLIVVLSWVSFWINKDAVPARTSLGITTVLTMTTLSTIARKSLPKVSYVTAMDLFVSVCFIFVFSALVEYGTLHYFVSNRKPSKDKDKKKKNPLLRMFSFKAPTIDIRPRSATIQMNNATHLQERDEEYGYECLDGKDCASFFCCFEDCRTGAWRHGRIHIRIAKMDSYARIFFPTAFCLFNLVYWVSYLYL
T1 sequence (P14867 28-456): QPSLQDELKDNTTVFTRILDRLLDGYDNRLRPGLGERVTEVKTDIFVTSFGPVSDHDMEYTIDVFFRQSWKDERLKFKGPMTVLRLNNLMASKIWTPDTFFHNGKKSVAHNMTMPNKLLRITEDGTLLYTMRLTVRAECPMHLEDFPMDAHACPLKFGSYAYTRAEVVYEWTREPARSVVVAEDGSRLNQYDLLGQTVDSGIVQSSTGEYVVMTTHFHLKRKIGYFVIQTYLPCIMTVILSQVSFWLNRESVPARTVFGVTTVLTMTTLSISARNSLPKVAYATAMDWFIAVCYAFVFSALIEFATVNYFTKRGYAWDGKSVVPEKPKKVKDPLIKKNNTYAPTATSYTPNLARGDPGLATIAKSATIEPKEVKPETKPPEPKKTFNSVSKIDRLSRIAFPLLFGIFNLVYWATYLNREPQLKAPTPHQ
T1 sequence (P28472 26-473): as the sequence (P28472 26-473) above
T1 sequence (P18507 40-475): as the sequence (P18507 40-475) above

CCCN(CCNC)C(=O)Cc1c(-c2ccc(C)cc2)nc2ccc(C)cn12 [Compound 2]
Mean Maximal Effect (% of Control) (hGABAA α1β3γ2 [1]): 354 % of Control | EC50 (hGABAA α1β3γ2 [1]; read-out: Estimated EC50): 0.446 µM | Mean Maximal Effect (% of Control) (hGABAA α2β3γ2): 248 % of Control | EC50 (hGABAA α2β3γ2; read-out: Estimated EC50): 2 µM | activation of hGABAA α1β3γ2 ion channel currents (hGABAA α1β3γ2 [2]): did not activate | EC50 (hGABAA α1β3γ2 [2]; agonist activation of channel currents, read-out: Estimated EC50): > 1000 µM | activation (hGABAA α1β3γ2 [2]; [3]): 3.48% | activation at 0.3 µM (hGABAA α1β3γ2 [2]; [3]): 2.17% | activation at 1 µM (hGABAA α1β3γ2 [2]; [3]): 1.99% | activation at 3 µM (hGABAA α1β3γ2 [2]; [3]): 2.79% | activation at 10 µM (hGABAA α1β3γ2 [2]; [3]): 5.37% | activation at 30 µM (hGABAA α1β3γ2 [2]; [3]): 5.93% | activation at 100 µM (hGABAA α1β3γ2 [2]; [3]): 7.1% | activation at 300 µM (hGABAA α1β3γ2 [2]; [3]): 3.63%

Cc1ccc(-c2nc3ccc(C)cn3c2CC(=O)N(C)C)cc1 [Zolpidem]
(%) Control mean (hGABAA α1β3γ2 [1]; 0.001 μM + EC20 GABA): 110.7 % Control | (%) Control n1 (hGABAA α1β3γ2 [1]; 0.001 μM + EC20 GABA): 116.2 % Control | (%) Control n2 (hGABAA α1β3γ2 [1]; 0.001 μM + EC20 GABA): 105.2 % Control | (%) Control mean (hGABAA α1β3γ2 [1]; 0.01 μM + EC20 GABA): 141.9 % Control | (%) Control n1 (hGABAA α1β3γ2 [1]; 0.01 μM + EC20 GABA): 144.3 % Control | (%) Control n2 (hGABAA α1β3γ2 [1]; 0.01 μM + EC20 GABA): 139.4 % Control | (%) Control mean (hGABAA α1β3γ2 [1]; 0.1 μM + EC20 GABA): 267.3 % Control | (%) Control n1 (hGABAA α1β3γ2 [1]; 0.1 μM + EC20 GABA): 278.5 % Control | (%) Control n2 (hGABAA α1β3γ2 [1]; 0.1 μM + EC20 GABA): 256.1 % Control | (%) Control mean (hGABAA α1β3γ2 [1]; 1 μM + EC20 GABA): 292.4 % Control | (%) Control n1 (hGABAA α1β3γ2 [1]; 1 μM + EC20 GABA): 294.8 % Control | (%) Control n2 (hGABAA α1β3γ2 [1]; 1 μM + EC20 GABA): 290.1 % Control | (%) Control mean (hGABAA α1β3γ2 [1]; 10 μM + EC20 GABA): 318.1 % Control | (%) Control n1 (hGABAA α1β3γ2 [1]; 10 μM + EC20 GABA): 326.1 % Control | (%) Control n2 (hGABAA α1β3γ2 [1]; 10 μM + EC20 GABA): 310.1 % Control | (%) Control mean (hGABAA α1β3γ2 [1]; 100 μM + EC20 GABA): 330.6 % Control | (%) Control n1 (hGABAA α1β3γ2 [1]; 100 μM + EC20 GABA): 349.7 % Control | (%) Control n2 (hGABAA α1β3γ2 [1]; 100 μM + EC20 GABA): 311.6 % Control | Mean Maximal Effect (% of Control) (hGABAA α1β3γ2 [1]): 331 % of Control | Mean Maximal Effect (% of Control) (hGABAA α2β3γ2): 304 % of Control
